The values below come from patent US4873238A, “2-Pyridinecarbothioamides and pharmaceutical compositions comprising the same” (American Home Products Corporation, priority 1988, dated 1989).

Where a name gives a salt, the structure may show the parent alone.

For orientation: ED50 means the midpoint of the dose-response relation.

In test [1] the test system is gastric mucosal lesions produced by ethanol. Briefly: Ethanol induced cytotoxicity in rats (prevention of gastric mucosal lesions). It is filed as in vivo, Male Sprague-Dawley rats. Particulars: for % Inhibition of lesion formation: 10 mg/kg oral, 1 hour prior to ethanol, rat; for ED50: Rattus norvegicus, po. How it is done:
The purpose of this assay is to evaluate the effectiveness of the compounds of the present invention in preventing the formation of gastric mucosal lesions produced by ethanol. The assay is based on A. Robert et al., Gastroenterology 77, 433-443 (1979). Male Sprague-Dawley rats weighing between 120-150 grams were fasted for 24 hours prior to the experiment (water ad libitum). At least two hours before dosing, the animals were placed in individual cages with wire grid bottoms and denied access to water. Ethanol was administered orally at 1 mL per animal. The compounds of the present invention were dissolved in water or suspended in water with 0.5% carboxymethylcellulose and administered orally at a dose based on an appropriate standard giving ED50 to ED75 response of cytoprotective activity. The rats were randomly divided into groups of equal number, ordinarily 10 to a group. The rats were weighed and the individual weights were recorded. Exactly 1 hour prior to the administration of ethanol, the screening group was treated with the compounds of the present invention and the control group with the vehicle. One hour after administering the ethanol, the animals were euthanized. The stomachs were removed, cut along the greater curvature, and cleansed of all debris with tap water. The stomachs were set aside and kept moist with saline until the lesions were scored. Macroscopic lesions on the gastric mucosa were numerically graded. The final grade assigned a stomach was the sum of all the grades. Streaks longer than 6 mm are graded in multiples of 2 mm. The degree of cytotoxicity occuring in each group is represented as the mean ±SE ulcer grade. The mean of each treatment group was compared to the control group and expressed as the % inhibition of lesion formation.

In another test the test system is ethanol-induced ulcer. Particulars: antisecretory agents; cited from earlier work.
A further test relates to stress-induced ulcers. Briefly: Stress-induced gastric ulcers in rats. It is filed as in vivo, Male rats. To be noted: oral or parenteral, usually 15 to 45 minutes prior to stress; restraint at 4-5 °C for 3 hours; sodium taurocholate 20 mg p.o.; rat; read-out: Stress-Induced Ulcer ED50. How it is done: The purpose of this assay is to evaluate the effectiveness of the compounds of the present invention in preventing stress-induced ulcers. Male rats (280-380 g) were fasted for 18 hours (water available ad libitum) prior to use in experiments. Eight to twelve rats were used per group. Drug solutions or suspensions were prepared in physiological saline solution. Suspensions were prepared with the aid of 0.5% carboxymethylcellulose in physiological saline solution. Drugs were administered orally or parenterally at predetermined intervals (usually 15 to 45 minutes) prior to stress. This test procedure is according to the method of Senay et al., Proc. Soc. Exp. Biol. Med. 124, 1221 (1967), modified to produce a more consistent ulcer incidence. After drug administration, the rats were immobilized in metallic restrainers and placed in a cold room at 4°-5° C. for 3 hours before they were euthanized. Each rat was given 20 mg of sodium taurocholate p.o. immediately before placing it in the restrainer. After euthanizing the rats, the stomachs were excised and examined. Macroscopic ulcers were subjectively assigned a grade from 1 to 3 on the basis of increasing size. The number of ulcers in each size category was determined and multiplied by the respective grade; the addition of the resultant values gave the cumulative ulcer score. The average cumulative ulcer score of each […] group was compared to that of the control group and the percent inhibition of ulcer formation was calculated. When the responses obtained were directly proportional to the doses employed, ED50 values were determined from the dose-response curves obtained.

In the case of `S=C(Nc1cccc(CN2CCOCC2)c1)c1ccccn1` [Example 8, N-[3-[(4-Morpholinyl)methyl]phenyl]-2-pyridinecarbothioamide], in test [1], the “% Inhibition of lesion formation” value was 64%. As for `CN/C(=N/CCSCc1nc[nH]c1C)NC#N` [cimetidine], in the test on ethanol-induced ulcer, the “Protection in the ethanol-induced ulcer model” value was “do not protect”. For the compound `S=C(Nc1cccc(CN2CCCCC2)c1)c1ccccn1` [Example 6, N-[3-(piperidinylmethyl)phenyl]-2-pyridinecarbothioamide], the values for the ED50 (in test [1]; with stress-induced ulcers) were 5.3 mg/kg and 4.6 mg/kg, respectively. Consider `S=C(Nc1cccc(CN2CCSCC2)c1)c1ccccn1` [Example 9, N-[3-[(4-thiomorpholinyl)methyl]phenyl]-2-pyridinecarbothioamide], for which the “% Inhibition of lesion formation” value in test [1] was determined as 32%. On to `CC(C)[N+](C)(CCOC(=O)C1c2ccccc2Oc2ccccc21)C(C)C` [propantheline bromide], for which the “Protection in the ethanol-induced ulcer model” value in the test on ethanol-induced ulcer is listed as “do not protect”.

Take `N#Cc1ccc(NC(=S)c2ccccn2)cc1` [Example 3, N-(4-Cyanophenyl)-2-pyridinecarbothioamide]: the values for the ED50 (in test [1]; in the test with stress-induced ulcers) were 1.1 mg/kg and 1.7 mg/kg, respectively.

Turning to `Fc1ccc(NC(=S)c2ccccn2)cc1Cn1ccnc1` [Example 1, N-[4-fluoro-3-[(1H-imidazol-1-yl)methyl]phenyl]-2-pyridinecarbothioamide], the ED50 in test [1] was found to be 0.88 mg/kg.

In test [1], `Fc1ccc(NC(=S)c2ccccn2)cc1CN1CCCCC1` [Example 2, N-[4-Fluoro-3-(piperidinylmethyl)phenyl]-2-pyridinecarbothioamide Hydrochloride] gave an ED50 of 2.6 mg/kg. With `CN1CCN(Cc2cccc(NC(=S)c3ccccn3)c2)CC1` [Example 10, N-[3-[(4-methyl-1-piperazinyl)methyl]phenyl]-2-pyridinecarbothioamide dihydrochloride hemihydrate], in test [1], the “% Inhibition of lesion formation” value amounted to 10%. `S=C(Nc1ccc(CN2CCCCC2)cc1)c1ccccn1` [Example 7, N-[4-(piperidinylmethyl)phenyl]-2-pyridinecarbothioamide]: it took a dose of 6.2 mg/kg to reach the 50% effect level in test [1] (ED50).

As for `Cl.Cl.O.S=C(Nc1cccc(Cn2ccnc2)c1)c1ccccn1` [Example 5, N-[3-[(1H-Imidazol-1-yl)methyl]phenyl]-2-pyridinecarbothioamide Dihydrochloride Hydrate], the values for the ED50 (in test [1]; in the test with stress-induced ulcers) were 2.2 mg/kg and 1.9 mg/kg, respectively.

Compound `N#Cc1cccc(NC(=S)c2ccccn2)c1` [Example 4, N-(3-cyanophenyl)-2-pyridinecarbothioamide] gave an ED50 in test [1] of 1.6 mg/kg.
